Measurements: patent US11813239B2, “Compositions and methods for improving cardiac structure and/or function” (Wisconsin Alumni Research Foundation, priority 2020, dated 2023)
“Also recorded” adds a separate entry of the source.

Legend:
adult cardiomyocytes = experiment: Histology after adult MI (TTC, TUNEL, pH3, Aurora B, BrdU, nucleation, γH2AX, trichrome, WGA, coronary casting, PECAM/α-SMA); assay type: in vivo, mouse
[1] = test system: postnatal (P7) mouse heart following myocardial infarction; experiment: Echocardiography after myocardial infarction in P7 juvenile mice; conditions: for % EF (Ejection Fraction) / % FS (Fractional Shortening) / LV Mass (Left Ventricular Mass, Anatomical Weight) / LV Vol; d (Left Ventricular Volume; diastole) / LV Vol; s (Left Ventricular Volume; systole) / LVAWD (Left Ventricle Anterior Wall Thickness Diastole) / LVAWS (Left Ventricle Anterior Wall Thickness Systole) / LVIDD (Left Ventricle Internal Diameter Diastole) / LVIDS (Left Ventricle Internal Diameter Systole) / LVPWD (Left Ventricle Posterior Wall Thickness Diastole) / LVPWS (Left Ventricle Posterior Wall Thickness Systole): dimethyl malonate 100 mg/kg daily for 2 weeks from birth, mean ± SE
Description: (§1) Neonatal mice at postnatal day 1 (P1) or day 7 (P7) were used for myocardial infarction (MI) surgery. Neonatal mice were subjected to MI surgeries as previously described. Briefly, neonates were anesthetized by hypothermia on ice. Lateral thoracotomy at the fourth intercostal space was performed by blunt dissection of the intercostal muscles after skin incision. A C-1 tapered needle attached to a 6-0 prolene suture (Ethicon Inc., Bridgewater, N.J.) was passed through the mid-ventricle below the left anterior descending coronary artery (LAD) and tied off to induce MI. The prolene suture was used to suture the ribs together and seal the chest wall incisions, and the skin was closed using adhesive glue (3M). The mice then were warmed on a heating pad until recovery. Sham-operated mice underwent the same procedure including hypothermic anesthesia, but not LAD ligation.
(§2) Neonatal mice were weighed and injected daily with either saline, 100 mg/kg dimethyl succinate (Sigma), 100 mg/kg dimethyl malonate (Sigma), or 100 μg/kg Atpenin A5 (Enzo Life Sciences). Dimethyl succinate and dimethyl malonate were dissolved in saline. Stock solution of Atpenin A5 at 0.1 mg/ml was initially prepared by dissolving in DMSO (Sigma) and then further diluted with saline before injection. Saline was used as a vehicle control for all experiments.
(§3) Transthoracic echocardiography was performed by using a Visual Sonics 770 ultrasonograph with a 25-MHz transducer (Visual Sonics, Toronto) as described previously^19. Mice were lightly anesthetized with 1% isoflurane and maintained on a heated platform. Two-dimensionally guided M-mode images from a parasternal long axis (PLAX) of the left ventricle (LV) were acquired at the tip of the papillary muscles. Wall thickness and chamber diameters were measured in both diastole and systole. Fractional shortening was calculated as (LVDd−LVDs)/LVDd×100, where LVDd is LV diameter in diastole and LVDs is LV diameter in systole. Ejection fraction was calculated as [(7.0/(2.4+LVDd)(LVDd)^3−(7.0/(2.4+LVDs)(LVDs)^3/(7.0/(2.4+LVDd)(LVDd)^3×100 and LV mass was calculated by using the formula [1.05×((Posterior Walldiastole+Anterior Walldiastole+LVDd)^3−(LVDd)^3)]. All parameters were measured over at least three consecutive cycles.
We injected dimethyl malonate (100 mg/kg, daily) in neonatal mice directly after birth for 2 weeks with an MI performed once the mice reached P7. We then analyzed the hearts following injury to determine whether malonate results in prolongation of the neonatal regenerative window (FIG. 10A).

[2] = test system: adult mouse heart following myocardial infarction; experiment: Trichrome staining after adult MI, malonate treatment starting 1-week post-MI; conditions: malonate for 4 weeks starting 1-week post-MI, 6 weeks post-MI
Excerpt: (§4) Adult male mice (8-week-old) were subjected to MI by ligation of the proximal aspect of the LAD coronary artery. In brief, mice were anaesthetized using 3% isoflurane, then mice were intubated with PE50 tubing and placed on a mouse ventilator at 120-130 breaths per minute with a stroke volume of 150 microliters and maintained on 2% isoflurane. A left lateral incision through the fourth intercostal space was made to expose the heart. After visualizing the left coronary artery, 7-0 suture was placed through the myocardium in the anterolateral wall and secured as previously describer^17,18. Coronary artery entrapment was confirmed by observing blanching of the distal circulation (ventricular apex). ECG was used to confirm MI by noting ST segment changes. The lungs were over inflated, and the ribs and muscle layers were closed by absorbable sutures. The skin is closed by additional suturing using 6-0 nylon. The mouse was recovered from the anesthesia and extubated.
Saline was used as a vehicle control for all experiments. […]
Hearts were harvested and fixed in 4% paraformaldehyde (PFA) in PBS solution overnight at 4° C., processed for paraffin embedding, and sectioned in intervals. […] Scar size measurements were quantified from at least 3 sections of the heart from ligature to apex. ImageJ was used to quantify the fibrotic scar, and the average scar area for each heart was plotted. […]

[3] = test system: tricarboxylic acid (TCA) cycle and glucose metabolism; experiment: LC-MS metabolite analysis of adult hearts
Description: (§5) Saline was used as a vehicle control for all experiments. […] Adult mice were injected intraperitoneally daily with either saline or 100 mg/kg dimethyl malonate post-MI for 2 or 4 weeks.
To analyze intracellular metabolites, metabolites were extracted with cold liquid chromatography-mass spectrometry (LC-MS) grade 3/1 butanol/methanol (v/v). The methanol layer was transferred to a new vial and samples were dried under nitrogen flow and subsequently dissolved in LC-MS grade water for LC-MS analysis methods. Protein pellets were removed by centrifugation. Samples were analyzed using a Thermo Q-Exactive mass spectrometer coupled to a Vanquish Horizon Ultra-High Performance Liquid Chromatograph (UHPLC). Metabolites were separated on a C18 (details below) at a 0.2 ml per min flow rate and 30° C. column temperature. […] The identification of metabolites reported was based on exact m/z and retention times, which were determined with chemical standards. Data were analyzed with Maven. Relative metabolite levels were normalized to internal standard Tryptophan (^13C11) and expressed relative to levels measured in the control group.
To determine whether SDH inhibition regulates cardiomyocyte cell cycle activity by modulating succinate levels, we measured the levels of intracellular succinate by liquid chromatography-mass spectrometry (LC-MS). […]

cardiomyocytes = experiment: Immunostaining (pH3, Aurora B), WGA and trichrome staining after MI in P7 mice; conditions: MI at P7, dimethyl malonate 100 mg/kg daily for 2 weeks from birth, 21 days post-MI
Excerpt: We then analyzed the hearts following injury to determine whether malonate results in prolongation of the neonatal regenerative window (FIG. 5A). To examine whether malonate stimulates cardiomyocyte proliferation, we performed MI in 7-day-old mice and analyzed their hearts at 7 days post-MI by immunostaining for markers of proliferation.
as §1, §2
Hearts were harvested and fixed in 4% paraformaldehyde (PFA) in PBS solution overnight at 4° C., processed for paraffin embedding, and sectioned in intervals. Masson's trichrome staining was performed according to the manufacture's protocol (Newcomer Supply, Middleton, WI). Scar size measurements were quantified from at least 3 sections of the heart from ligature to apex. ImageJ was used to quantify the fibrotic scar, and the average scar area for each heart was plotted.
We injected dimethyl malonate (100 mg/kg, daily) in neonatal mice directly after birth for 2 weeks with an MI performed once the mice reached P7.

[4] = test system: adult mouse heart following myocardial infarction; experiment: Echocardiography after adult MI, malonate treatment starting 1-week post-MI; conditions: for % EF (Ejection Fraction) / % FS (Fractional Shortening) / LV Mass (Left Ventricular Mass, Anatomical Weight) / LV Vol; d (Left Ventricular Volume; diastole) / LV Vol; s (Left Ventricular Volume; systole) / LVAWD (Left Ventricle Anterior Wall Thickness Diastole) / LVAWS (Left Ventricle Anterior Wall Thickness Systole) / LVIDD (Left Ventricle Internal Diameter Diastole) / LVIDS (Left Ventricle Internal Diameter Systole) / LVPWD (Left Ventricle Posterior Wall Thickness Diastole) / LVPWS (Left Ventricle Posterior Wall Thickness Systole): adult mice, mean ± SE
Excerpt: as §4, §5, §3
To determine whether SDH inhibitors can promote a regenerative response following the establishment of infarction, we performed MI in 8-week-old mice and started malonate treatment at 1-week post-MI (FIG. 20A). […] Mice were then randomized and treated with saline or malonate for a period of 4 weeks, and hearts were harvested at 6 weeks post-MI (FIG. 20A).

[5] = dimethyl malonate 100 mg/kg daily for 2 weeks, 28 days post-MI
[6] = dimethyl malonate 100 mg/kg daily for 2 weeks, 28 days post-MI, vs controls
[7] = dimethyl malonate 100 mg/kg daily, 14 days post-MI
[8] = MI at P7 (n = 6), echo 21 days post-MI (P7D21)
[9] = sham at P7 (SH, n = 6), echo at day 21 (P7D21)
[10] = MI, 2 WPMI, dimethyl malonate 100 mg/kg daily for 4 weeks starting 1 WPMI
[11] = MI, 3 WPMI, dimethyl malonate 100 mg/kg daily for 4 weeks starting 1 WPMI
[12] = MI, 4 WPMI, dimethyl malonate 100 mg/kg daily for 4 weeks starting 1 WPMI
[13] = MI, 6 WPMI, dimethyl malonate 100 mg/kg daily for 4 weeks starting 1 WPMI
[14] = malonate group, MI, 1 WPMI (before start of dosing)
[15] = malonate group, Pre (before MI and dosing)

## COC(=O)CC(=O)OC [Malonate, dimethyl malonate]
Adult cardiomyocytes; dimethyl malonate 100 mg/kg daily for 2 weeks, 14 days post-MI, vs controls, difference was not significant
  fibrosis (trichrome staining, quantification): trend for reduction in fibrosis
Adult cardiomyocytes; [5]
  capillary density and vascular smooth muscle cells in the infarct zone (PECAM, α-SMA): significant increase in capillary density and vascular smooth muscle cells
  scar size (quantification of fibrosis): significant reduction of scar size
Adult cardiomyocytes; [6]
  cardiomyocyte size (WGA staining): significant reduction in cardiomyocyte size
  coronary artery formation / revascularization of the infarct zone (coronary casting): Re-vascularization in the infarcted zone was also induced; also recorded: remarkable formation of coronary arteries below the ligature site
Adult cardiomyocytes; dimethyl malonate 100 mg/kg daily for 2 weeks, 28 days post-MI, vs saline
  heart weight to body weight ratios: No significant differences
Adult cardiomyocytes; dimethyl malonate 100 mg/kg daily for 2 weeks, 28 days post-MI, vs saline controls
  cardiac structure (trichrome staining): complete restoration of the myocardium with minimal fibrosis; also recorded: remarkable restoration of the myocardium with minimal fibrosis
Adult cardiomyocytes; dimethyl malonate 100 mg/kg daily, 3- or 7-days post-MI, vs saline
  number of apoptotic cardiomyocytes (TUNEL staining): no difference in the number of apoptotic cardiomyocytes
Adult cardiomyocytes; [7]
  BrdU incorporation in cardiomyocytes: significant increase in 5-bromodeoxyuridine (BrdU) incorporation
  number of binucleated cardiomyocytes: significant decrease in the number of binucleated cardiomyocytes
  number of mononucleated cardiomyocytes: remarkable increase in the number of mononucleated cardiomyocytes
Adult cardiomyocytes; dimethyl malonate 100 mg/kg daily, vs controls
  cardiomyocytes with γH2AX foci (DNA damage): significant decrease in the number of cardiomyocytes with γH2AX foci
Adult cardiomyocytes; dimethyl malonate 100 mg/kg from within an hour post-MI, daily, 3 days post-MI, vs saline
  non-viable myocardium, myocardial necrosis (TTC viability stain): no significant difference
Adult cardiomyocytes; dimethyl malonate 100 mg/kg intraperitoneally for two weeks, 28 days post-MI, vs controls
  gross morphology of the heart: more muscularized ventricle
Adult cardiomyocytes; malonate, 28 days post-MI, vs controls
  vascular density in the infarct zone (MICROFIL casting, ImageJ region of interest): significant increase in vascular density in the infarct zone
[1]; [8]
  % EF (Ejection Fraction): 69.751 ± 5.496%
  % FS (Fractional Shortening): 38.443 ± 4.043%
  LV Mass (Left Ventricular Mass, Anatomical Weight): 48.029 ± 9.293 mg
  LV Vol; d (Left Ventricular Volume; diastole): 24.289 ± 5.739 µL
  LV Vol; s (Left Ventricular Volume; systole): 8.741 ± 3.350 µL
  LVAWD (Left Ventricle Anterior Wall Thickness Diastole): 0.702 ± 0.029 mm
  LVAWS (Left Ventricle Anterior Wall Thickness Systole): 0.814 ± 0.023 mm
  LVIDD (Left Ventricle Internal Diameter Diastole): 2.490 ± 0.269 mm
  LVIDS (Left Ventricle Internal Diameter Systole): 1.578 ± 0.259 mm
  LVPWD (Left Ventricle Posterior Wall Thickness Diastole): 0.684 ± 0.037 mm
  LVPWS (Left Ventricle Posterior Wall Thickness Systole): 0.823 ± 0.022 mm
[1]; MI at P7, dimethyl malonate 100 mg/kg daily for 2 weeks from birth, 21 days post-MI
  cardiac function by echocardiography (EF, FS, LVIDD, LVIDS): restored to normal levels
[1]; [9]
  % EF (Ejection Fraction): 67.727 ± 3.762%
  % FS (Fractional Shortening): 37.135 ± 2.848%
  LV Mass (Left Ventricular Mass, Anatomical Weight): 62.439 ± 4.833 mg
  LV Vol; d (Left Ventricular Volume; diastole): 43.309 ± 5.883 µL
  LV Vol; s (Left Ventricular Volume; systole): 14.962 ± 3.612 µL
  LVAWD (Left Ventricle Anterior Wall Thickness Diastole): 0.650 ± 0.025 mm
  LVAWS (Left Ventricle Anterior Wall Thickness Systole): 0.820 ± 0.033 mm
  LVIDD (Left Ventricle Internal Diameter Diastole): 3.240 ± 0.185 mm
  LVIDS (Left Ventricle Internal Diameter Systole): 2.058 ± 0.204 mm
  LVPWD (Left Ventricle Posterior Wall Thickness Diastole): 0.643 ± 0.026 mm
  LVPWS (Left Ventricle Posterior Wall Thickness Systole): 0.818 ± 0.032 mm
[2]
  scar size (fibrosis quantification): significant reduction in scar size
[3]; adult MI, dimethyl malonate 100 mg/kg daily, 14 days post-MI
  intracellular succinate levels in the heart (LC-MS): significant increase in succinate levels
[3]; adult mice treated for 2 weeks with dimethyl malonate, vs saline
  succinate levels (LC-MS metabolomics): increase in succinate levels
cardiomyocytes
  cardiomyocyte cell size (wheat germ agglutinin staining): significant reduction in cardiomyocyte cell size
cardiomyocytes; vs saline controls
  structural regeneration and fibrosis (trichrome staining): complete heart regeneration
[4]; adult MI, malonate for 4 weeks starting 1-week post-MI, 4-weeks and 6-weeks post-MI
  cardiac function by echocardiography: significant increase in cardiac function
[4]; [10]
  % EF (Ejection Fraction): 34.537 ± 4.592%
  % FS (Fractional Shortening): 16.507 ± 2.337%
  LV Mass (Left Ventricular Mass, Anatomical Weight): 118.559 ± 20.724 mg
  LV Vol; d (Left Ventricular Volume; diastole): 97.776 ± 23.854 µL
  LV Vol; s (Left Ventricular Volume; systole): 69.099 ± 20.899 µL
  LVAWD (Left Ventricle Anterior Wall Thickness Diastole): 0.698 ± 0.021 mm
  LVAWS (Left Ventricle Anterior Wall Thickness Systole): 0.833 ± 0.016 mm
  LVIDD (Left Ventricle Internal Diameter Diastole): 4.458 ± 0.467 mm
  LVIDS (Left Ventricle Internal Diameter Systole): 3.772 ± 0.497 mm
  LVPWD (Left Ventricle Posterior Wall Thickness Diastole): 0.671 ± 0.023 mm
  LVPWS (Left Ventricle Posterior Wall Thickness Systole): 0.814 ± 0.012 mm
[4]; [11]
  % EF (Ejection Fraction): 38.518 ± 3.865%
  % FS (Fractional Shortening): 18.642 ± 2.058%
  LV Mass (Left Ventricular Mass, Anatomical Weight): 90.090 ± 11.827 mg
  LV Vol; d (Left Ventricular Volume; diastole): 78.984 ± 13.627 µL
  LV Vol; s (Left Ventricular Volume; systole): 50.781 ± 11.724 µL
  LVAWD (Left Ventricle Anterior Wall Thickness Diastole): 0.623 ± 0.024 mm
  LVAWS (Left Ventricle Anterior Wall Thickness Systole): 0.791 ± 0.028 mm
  LVIDD (Left Ventricle Internal Diameter Diastole): 4.139 ± 0.296 mm
  LVIDS (Left Ventricle Internal Diameter Systole): 3.393 ± 0.326 mm
  LVPWD (Left Ventricle Posterior Wall Thickness Diastole): 0.613 ± 0.017 mm
  LVPWS (Left Ventricle Posterior Wall Thickness Systole): 0.764 ± 0.018 mm
[4]; [12]
  % EF (Ejection Fraction): 45.375 ± 5.597%
  % FS (Fractional Shortening): 24.529 ± 3.624%
  LV Mass (Left Ventricular Mass, Anatomical Weight): 90.726 ± 13.717 mg
  LV Vol; d (Left Ventricular Volume; diastole): 70.697 ± 15.089 µL
  LV Vol; s (Left Ventricular Volume; systole): 47.342 ± 10.954 µL
  LVAWD (Left Ventricle Anterior Wall Thickness Diastole): 0.687 ± 0.039 mm
  LVAWS (Left Ventricle Anterior Wall Thickness Systole): 0.809 ± 0.051 mm
  LVIDD (Left Ventricle Internal Diameter Diastole): 4.136 ± 0.349 mm
  LVIDS (Left Ventricle Internal Diameter Systole): 2.958 ± 0.419 mm
  LVPWD (Left Ventricle Posterior Wall Thickness Diastole): 0.962 ± 0.287 mm
  LVPWS (Left Ventricle Posterior Wall Thickness Systole): 1.015 ± 0.214 mm
[4]; [13]
  % EF (Ejection Fraction): 47.208 ± 4.087%
  % FS (Fractional Shortening): 23.535 ± 2.509%
  LV Mass (Left Ventricular Mass, Anatomical Weight): 107.845 ± 11.076 mg
  LV Vol; d (Left Ventricular Volume; diastole): 75.865 ± 9.652 µL
  LV Vol; s (Left Ventricular Volume; systole): 40.253 ± 6.696 µL
  LVAWD (Left Ventricle Anterior Wall Thickness Diastole): 0.718 ± 0.011 mm
  LVAWS (Left Ventricle Anterior Wall Thickness Systole): 0.831 ± 0.019 mm
  LVIDD (Left Ventricle Internal Diameter Diastole): 4.113 ± 0.228 mm
  LVIDS (Left Ventricle Internal Diameter Systole): 3.146 ± 0.214 mm
  LVPWD (Left Ventricle Posterior Wall Thickness Diastole): 0.738 ± 0.018 mm
  LVPWS (Left Ventricle Posterior Wall Thickness Systole): 0.846 ± 0.017 mm
[4]; [14]
  % EF (Ejection Fraction): 35.760 ± 3.523%
  % FS (Fractional Shortening): 17.077 ± 1.873%
  LV Mass (Left Ventricular Mass, Anatomical Weight): 105.118 ± 13.726 mg
  LV Vol; d (Left Ventricular Volume; diastole): 87.566 ± 16.492 µL
  LV Vol; s (Left Ventricular Volume; systole): 57.371 ± 11.845 µL
  LVAWD (Left Ventricle Anterior Wall Thickness Diastole): 0.651 ± 0.018 mm
  LVAWS (Left Ventricle Anterior Wall Thickness Systole): 0.788 ± 0.016 mm
  LVIDD (Left Ventricle Internal Diameter Diastole): 4.329 ± 0.343 mm
  LVIDS (Left Ventricle Internal Diameter Systole): 3.603 ± 0.326 mm
  LVPWD (Left Ventricle Posterior Wall Thickness Diastole): 0.665 ± 0.033 mm
  LVPWS (Left Ventricle Posterior Wall Thickness Systole): 0.838 ± 0.025 mm
[4]; [15]
  % EF (Ejection Fraction): 69.832 ± 3.238%
  % FS (Fractional Shortening): 38.447 ± 2.452%
  LV Mass (Left Ventricular Mass, Anatomical Weight): 59.124 ± 6.101 mg
  LV Vol; d (Left Ventricular Volume; diastole): 32.452 ± 4.967 µL
  LV Vol; s (Left Ventricular Volume; systole): 10.208 ± 2.260 µL
  LVAWD (Left Ventricle Anterior Wall Thickness Diastole): 0.704 ± 0.023 mm
  LVAWS (Left Ventricle Anterior Wall Thickness Systole): 0.838 ± 0.024 mm
  LVIDD (Left Ventricle Internal Diameter Diastole): 2.872 ± 0.174 mm
  LVIDS (Left Ventricle Internal Diameter Systole): 1.779 ± 0.158 mm
  LVPWD (Left Ventricle Posterior Wall Thickness Diastole): 0.717 ± 0.020 mm
  LVPWS (Left Ventricle Posterior Wall Thickness Systole): 0.829 ± 0.017 mm
